In paper PMC12663368 (Nature Communications, 2025):

System: Mpro-WT and Mpro-Δ23G 1:1 mixture
Conditions: hamster, in vivo

CC(C)(C)[C@H](NC(=O)C(F)(F)F)C(=O)N1C[C@H]2[C@@H]([C@H]1C(=O)N[C@H](C#N)C[C@@H]1CCNC1=O)C2(C)C [nirmatrelvir]
Mpro-WT dominance: > 97%
